pIC50: −log10 of the molar value. Values belong to the compound of their own block, whether it stands above or below them.
Experiments:
Type in all cases: cell-based
MM.1S cells = experiment: Effect of the compound on MM.1S cell proliferation (MTS, 7 days); conditions: Homo sapiens, MM1.S, 168 h, 7 days, MTS, Table 1, read-out: MM.1S Cells Inhibition Activity IC50
Experimental: MM.1S cells were cultured in 1640 medium supplemented with 10% fetal bovine serum, then collected and diluted to the desired cell concentration after 7 days of treatment. A total of 180 μL of cell suspension was added to each well in a 96-well cell plate, ensuring 20,000 cells per well. For the control group, 20 μL of 0.2% DMSO was added to each well. Compounds were diluted in a 5-step gradient from a 10 mM stock solution, and 20 μL of each dilution was added to the compound-containing wells (with a final DMSO concentration of 0.2%). The cells were incubated in a 37° C., 5% CO2 incubator for 7 days. Afterward, 20 μL of the MTS reagent (Promega, G5430) was added to each well, followed by incubation for 3-4 hours in a 37° C., 5% CO2 incubator. Absorbance at 490 nm was measured using a microplate reader, with 690 nm absorbance as the background. The final raw data was calculated as OD490-OD690. The compound inhibition rate was calculated using the formula: […]
The IC50 for the compound's proliferative inhibition was fitted using GraphPad Prism 5.0. The experiment was repeated three times, and the average and standard deviation were calculated using three parallel experiments per trial.

Mino cells = experiment: Inhibition of cell proliferation of Mino cells (MTS, 3 days); conditions: Homo sapiens, MINO, 72 h, 3 days, MTS, Table 2, read-out: Mino Cells Inhibition Activity IC50
Experimental: Mino cells were cultured with RPMI-1640 medium supplemented with 15% fetal bovine serum, and collected. The cell concentration was diluted according to a 3-day treatment period, and 90 μL of the cell suspension was added to each well of a 96-well plate, resulting in 8000 cells per well. For control wells, 10 μL of DMSO at a final concentration of 0.2% was added. The compounds were diluted in a 5-fold gradient from a 10 mM stock solution, and 10 μL of each compound solution was added to the experimental wells (with a final DMSO concentration of 0.2%). The cells were incubated in a 37° C., 5% CO2 incubator for 3 days. After preparing the reaction mixture using the MTS reagent kit (Promega, G5430), 20 μL was added to each well, and the cells were incubated for 3-4 hours at 37° C., 5% CO2.
The absorbance at 490 nm was read using a microplate reader, with the absorbance at 690 nm used as the background. The final raw data was calculated as OD490-OD690. The inhibition rate of the compounds was calculated using the formula: Inhibition rate=(OD DMSO−OD compound)/(OD DMSO−OD blank)×100%. The IC50 values for cell proliferation inhibition of the compounds were fitted using GraphPad Prism 5.0. The experiment was repeated three times, with the average and standard deviation calculated from three parallel experiments each time.

MV-4-11 cells = experiment: Inhibition of MV-4-11 cell proliferation (MTS, 7 days); conditions: Homo sapiens, MV4-11, 168 h, 7 days, MTS, Table 3, read-out: MV-4-11 Cells Inhibition Activity IC50
Experimental: MV-4-11 cells were cultured in IMDM with 10% fetal bovine serum, collected, and diluted to the appropriate cell concentration for a 7-day treatment period. A 96-well plate was used, and 180 μL of cell suspension was added to each well, resulting in a cell count of 2,000 per well. For the control wells, 20 μL of DMSO at a final concentration of 0.2% was added. The compounds were diluted from a 10 mM stock solution in a five-fold gradient, and 20 μL was added to the compound wells (with a final DMSO concentration of 0.2%). The cells were incubated in a 37° C., 5% CO2 incubator for 7 days. After preparing the reaction solution using the MTS reagent kit (Promega, G5430), 20 μL was added to each well, and the cells were incubated in the incubator for 3-4 hours. The absorbance at 490 nm was measured using a microplate reader, with the absorbance at 690 nm as the background value. The final data was calculated as OD490-OD690. The inhibition rate of the compounds was calculated using the formula: […]
The IC50 values for proliferation inhibition were calculated using GraphPad Prism 5.0. The experiments were repeated three times, with three parallel experiments for each, and the mean and standard deviation were calculated.
The cell activity test results are shown in Table 3: A indicates IC50<1 μM, B indicates 1 µM≤IC50≤20 μM, and C indicates IC50>20 μM.

SMILES: O=C1CCC(N2C(=O)c3cccc(NCc4cnc(-c5ccc(Cl)cn5)s4)c3C2=O)C(=O)N1 (stereo not drawn) [Example 43]
pIC50 (MM.1S cells): > 7.82 | pIC50 (Mino cells): < 6.92 | pIC50 (MV-4-11 cells): > 6.00

SMILES: O=C1CCC(N2C(=O)c3cccc(NCc4cnc(-c5ccc(Cl)nc5)o4)c3C2=O)C(=O)N1 (stereo not drawn) [Example 44]
pIC50 (MM.1S cells): 6.82 to 7.52 | pIC50 (Mino cells): < 6.92 | pIC50 (MV-4-11 cells): < 4.70

SMILES: [2H]c1c([2H])c([2H])c(-c2ncc(CNc3cccc4c3C(=O)N(C3CCC(=O)NC3=O)C4=O)s2)c([2H])c1[2H] (stereo not drawn) [Example 46]
pIC50 (MM.1S cells): 7.52 to 7.82 | pIC50 (Mino cells): < 6.92 | pIC50 (MV-4-11 cells): 4.70 to 6.00

SMILES: O=C1CCC(N2C(=O)c3cccc(NCc4cnc(-c5cccc(C(F)(F)F)c5)o4)c3C2=O)C(=O)N1 (stereo not drawn) [Example 58]
pIC50 (MM.1S cells): 7.52 to 7.82 | pIC50 (Mino cells): < 6.92 | pIC50 (MV-4-11 cells): > 6.00

SMILES: O=C1CCC(N2C(=O)c3cccc(NCc4cnc(-c5ccccc5C(F)(F)F)o4)c3C2=O)C(=O)N1 (stereo not drawn) [Example 59]
pIC50 (MM.1S cells): 6.82 to 7.52 | pIC50 (Mino cells): < 6.92 | pIC50 (MV-4-11 cells): 4.70 to 6.00

SMILES: O=C1CCC(N2C(=O)c3cccc(NCc4ncc(-c5ccc(C(F)(F)F)cc5)o4)c3C2=O)C(=O)N1 (stereo not drawn) [Example 60]
pIC50 (MM.1S cells): 7.52 to 7.82 | pIC50 (Mino cells): < 6.92 | pIC50 (MV-4-11 cells): 4.70 to 6.00

SMILES: O=C1CCC(N2C(=O)c3cccc(NCc4ncc(-c5cccc(C(F)(F)F)c5)o4)c3C2=O)C(=O)N1 (stereo not drawn) [Example 61]
pIC50 (MM.1S cells): 6.82 to 7.52 | pIC50 (Mino cells): < 6.92 | pIC50 (MV-4-11 cells): < 4.70

SMILES: O=C1CCC(N2C(=O)c3cccc(NCc4ncc(-c5ccccc5C(F)(F)F)o4)c3C2=O)C(=O)N1 (stereo not drawn) [Example 62]
pIC50 (MM.1S cells): < 6.82 | pIC50 (Mino cells): < 6.92 | pIC50 (MV-4-11 cells): 4.70 to 6.00

SMILES: O=C1CCC(N2C(=O)c3cccc(NCc4cnc(-c5cccc(Cl)c5)o4)c3C2=O)C(=O)N1 (stereo not drawn) [Example 63, 4-(((2-(3-Chlorophenyl)oxazol-5-yl)methyl)amino)-2-(2,6-Dioxopiperidin-3-yl)isoindolin-1,3-dione]
pIC50 (MM.1S cells): 7.52 to 7.82 | pIC50 (Mino cells): < 6.92 | pIC50 (MV-4-11 cells): > 6.00

SMILES: O=C1CCC(N2C(=O)c3cccc(NCc4ncc(-c5ccc(Cl)cc5)o4)c3C2=O)C(=O)N1 (stereo not drawn) [Example 64, 4-(((5-(4-Chlorophenyl)oxazol-2-yl)methyl)amino)-2-(2,6-Dioxopiperidin-3-yl)isoindolin-1,3-dione]
pIC50 (MM.1S cells): > 7.82 | pIC50 (Mino cells): < 6.92 | pIC50 (MV-4-11 cells): > 6.00

The next lines start with results.

pIC50 (MM.1S cells): > 7.82 | pIC50 (MV-4-11 cells): > 6.00
SMILES: O=C1CCC(N2C(=O)c3cccc(NCc4cnc(-c5ccc(O[C@H]6CCOC6)cc5)o4)c3C2=O)C(=O)N1 (stereo partly drawn) [Example 48]
pIC50 (Mino cells): > 7.22

pIC50 (MM.1S cells): 7.52 to 7.82 | pIC50 (MV-4-11 cells): > 6.00
SMILES: O=C1CCC(N2C(=O)c3cccc(NCc4cnc(-c5ccc(OC6COC6)cc5)o4)c3C2=O)C(=O)N1 (stereo not drawn) [Example 49]
pIC50 (Mino cells): > 7.22

pIC50 (MM.1S cells): > 7.82 | pIC50 (MV-4-11 cells): > 6.00
SMILES: O=C1CCC(N2C(=O)c3cccc(NCc4cnc(-c5ccc(OCCO)cc5)o4)c3C2=O)C(=O)N1 (stereo not drawn) [Example 50]
pIC50 (Mino cells): > 7.22

pIC50 (MM.1S cells): > 7.82 | pIC50 (MV-4-11 cells): > 6.00
SMILES: COCCOc1ccc(-c2ncc(CNc3cccc4c3C(=O)N(C3CCC(=O)NC3=O)C4=O)o2)cc1 (stereo not drawn) [Example 52]
pIC50 (Mino cells): > 7.22

pIC50 (MM.1S cells): > 7.82 | pIC50 (MV-4-11 cells): > 6.00
SMILES: O=C1CCC(N2C(=O)c3cccc(NCc4cnc(-c5ccc(OC6CCOCC6)cc5)o4)c3C2=O)C(=O)N1 (stereo not drawn) [Example 53]
pIC50 (Mino cells): > 7.22

pIC50 (MM.1S cells): > 7.82 | pIC50 (MV-4-11 cells): > 6.00
SMILES: O=C1CCC(N2C(=O)c3cccc(NCc4cnc(-c5ccc(O[C@@H]6CCOC6)cc5)o4)c3C2=O)C(=O)N1 (stereo partly drawn) [Example 54]
pIC50 (Mino cells): > 7.22

pIC50 (MM.1S cells): > 7.82 | pIC50 (MV-4-11 cells): > 6.00
SMILES: O=C1CCC(N2C(=O)c3cccc(NCc4cnc(-c5ccc(C(F)(F)F)cc5)o4)c3C2=O)C(=O)N1 (stereo not drawn) [Example 57]
pIC50 (Mino cells): < 6.92
